In ChEMBL document CHEMBL3885861, “Open TG-GATES”:

Species on record: Rattus norvegicus
Test: Open TG-GATES - Regimen: Daily Repeat
Format: toxicity, organism-based, Sprague-Dawley
Set-up: regimen Daily Repeat, gender Male, age 6 weeks
Settings: in vivo, po, route gavage; for APTT / Bas / Eos / Fbg / Hb / Ht / Lym / MCH / MCHC / MCV / Mono / Neu / PT / Plat / RBC / Ret / WBC: tissue Blood; for KIDNEY_L / KIDNEY_R / KIDNEY_TOTAL: tissue Kidney; for LIVER: tissue Liver; for A/G / ALP / ALT / AST / BUN / CRE / Ca / Cl / DBIL / GLC / IP / K / LDH / Na / PL / RALB / TBIL / TC / TG / TP / gamma-GTP: tissue Plasma
[1] = 100 mg/kg, 72 h, dose level Middle, time 3 day
[2] = 100 mg/kg, […], dose level Middle, time 7 day
[3] = 100 mg/kg, […], dose level Middle, time 14 day
[4] = 100 mg/kg, […], dose level Middle, time 28 day
[5] = 300 mg/kg, 72 h, dose level High, time 3 day
[6] = 300 mg/kg, […], dose level High, time 7 day
[7] = 300 mg/kg, […], dose level High, time 14 day
[8] = 300 mg/kg, […], dose level High, time 28 day

ClC(Cl)(Cl)Cl [CARBON TETRACHLORIDE]
TERMINAL_BW [1]: 216.4 g
APTT [1]: 20.1 s
Bas [1]: 0%
Eos [1]: 1%
Fbg [1]: 220 mg/dL
Hb [1]: 13.9 g/dL
Ht [1]: 40.9%
Lym [1]: 75%
MCH [1]: 21.3 pg
MCHC [1]: 34%
MCV [1]: 62.6 fL
Mono [1]: 3.4%
Neu [1]: 19.6%
PT [1]: 12.6 s
Plat [1]: 123.3 x10_4/uL
RBC [1]: 653.4 x10_4/ul
Ret [1]: 5.6%
WBC [1]: 95 x10_2/uL
KIDNEY_L [1]: 0.9 g
KIDNEY_R [1]: 0.9 g
KIDNEY_TOTAL [1]: 1.8 g
LIVER [1]: 10.9 g
A/G [1]: 1.5
ALP [1]: 1153 IU/L
ALT [1]: 68.6 IU/L
AST [1]: 164.4 IU/L
BUN [1]: 13 mg/dL
CRE [1]: 0.4 mg/dL
Ca [1]: 10.9 mg/dL
Cl [1]: 103.4 meq/L
DBIL [1]: 0.066 mg/dL
GLC [1]: 184.4 mg/dL
IP [1]: 7.3 mg/dL
K [1]: 4 meq/L
LDH [1]: 279.4 IU/L
Na [1]: 140 meq/L
PL [1]: 132.2 mg/dL
RALB [1]: 3.2 g/dL
TBIL [1]: 0.1 mg/dL
TC [1]: 61.6 mg/dL
TG [1]: 30 mg/dL
TP [1]: 5.4 g/dL
gamma-GTP [1]: 1.4 IU/L
TERMINAL_BW [2]: 247.4 g
TERMINAL_BW [3]: 301.8 g
TERMINAL_BW [4]: 377.7 g
APTT [2]: 19.9 s
Bas [2]: 0%
Eos [2]: 1%
Fbg [2]: 229.6 mg/dL
Hb [2]: 13.9 g/dL
Ht [2]: 40.5%
Lym [2]: 83.4%
MCH [2]: 21.7 pg
MCHC [2]: 34.4%
MCV [2]: 63 fL
Mono [2]: 3%
Neu [2]: 12.8%
PT [2]: 12.1 s
Plat [2]: 112.3 x10_4/uL
RBC [2]: 642.2 x10_4/ul
Ret [2]: 5.8%
WBC [2]: 127.1 x10_2/uL
APTT [3]: 22.1 s
Bas [3]: 0%
Eos [3]: 0.8%
Fbg [3]: 217.4 mg/dL
Hb [3]: 14 g/dL
Ht [3]: 41.6%
Lym [3]: 80.2%
MCH [3]: 20.1 pg
MCHC [3]: 33.6%
MCV [3]: 59.6 fL
Mono [3]: 3.2%
Neu [3]: 16%
PT [3]: 12.2 s
Plat [3]: 113 x10_4/uL
RBC [3]: 699 x10_4/ul
Ret [3]: 4%
WBC [3]: 110.8 x10_2/uL
APTT [4]: 20.8 s
Bas [4]: 0%
Eos [4]: 0.6%
Fbg [4]: 209.4 mg/dL
Hb [4]: 14.7 g/dL
Ht [4]: 42.8%
Lym [4]: 78.4%
MCH [4]: 18.3 pg
MCHC [4]: 34.3%
MCV [4]: 53.4 fL
Mono [4]: 3.8%
Neu [4]: 16.8%
PT [4]: 12.5 s
Plat [4]: 111.2 x10_4/uL
RBC [4]: 801.8 x10_4/ul
Ret [4]: 3%
WBC [4]: 148.3 x10_2/uL
KIDNEY_L [2]: 1.1 g
KIDNEY_R [2]: 1.1 g
KIDNEY_TOTAL [2]: 2.2 g
KIDNEY_L [3]: 1.1 g
KIDNEY_R [3]: 1.2 g
KIDNEY_TOTAL [3]: 2.3 g
KIDNEY_L [4]: 1.3 g
KIDNEY_R [4]: 1.3 g
KIDNEY_TOTAL [4]: 2.6 g
LIVER [2]: 13.2 g
LIVER [3]: 15.1 g
LIVER [4]: 18.2 g
A/G [2]: 1.4
ALP [2]: 942.6 IU/L
ALT [2]: 53.4 IU/L
AST [2]: 113.4 IU/L
BUN [2]: 15.4 mg/dL
CRE [2]: 0.4 mg/dL
Ca [2]: 10.6 mg/dL
Cl [2]: 104.4 meq/L
DBIL [2]: 0.074 mg/dL
GLC [2]: 193.8 mg/dL
IP [2]: 7.6 mg/dL
K [2]: 4 meq/L
LDH [2]: 231.2 IU/L
Na [2]: 141 meq/L
PL [2]: 142.8 mg/dL
RALB [2]: 3.2 g/dL
TBIL [2]: 0.1 mg/dL
TC [2]: 63.4 mg/dL
TG [2]: 62.6 mg/dL
TP [2]: 5.5 g/dL
gamma-GTP [2]: 1.4 IU/L
A/G [3]: 1.6
ALP [3]: 1040.6 IU/L
ALT [3]: 106 IU/L
AST [3]: 165.4 IU/L
BUN [3]: 15.2 mg/dL
CRE [3]: 0.4 mg/dL
Ca [3]: 10.7 mg/dL
Cl [3]: 104 meq/L
DBIL [3]: 0.06 mg/dL
GLC [3]: 184.2 mg/dL
IP [3]: 7.6 mg/dL
K [3]: 3.8 meq/L
LDH [3]: 281.4 IU/L
Na [3]: 142 meq/L
PL [3]: 131.2 mg/dL
RALB [3]: 3.5 g/dL
TBIL [3]: 0.1 mg/dL
TC [3]: 64.4 mg/dL
TG [3]: 38.8 mg/dL
TP [3]: 5.7 g/dL
gamma-GTP [3]: 0.8 IU/L
A/G [4]: 1.4
ALP [4]: 760.2 IU/L
ALT [4]: 103.2 IU/L
AST [4]: 131 IU/L
BUN [4]: 16 mg/dL
CRE [4]: 0.5 mg/dL
Ca [4]: 10.3 mg/dL
Cl [4]: 102.6 meq/L
DBIL [4]: 0.072 mg/dL
GLC [4]: 203.6 mg/dL
IP [4]: 6.8 mg/dL
K [4]: 3.8 meq/L
LDH [4]: 390 IU/L
Na [4]: 140.8 meq/L
PL [4]: 122.8 mg/dL
RALB [4]: 3.4 g/dL
TBIL [4]: 0.1 mg/dL
TC [4]: 57 mg/dL
TG [4]: 32.2 mg/dL
TP [4]: 5.9 g/dL
gamma-GTP [4]: 1.2 IU/L
TERMINAL_BW [5]: 213 g
APTT [5]: 21.4 s
Bas [5]: 0%
Eos [5]: 1%
Fbg [5]: 217 mg/dL
Hb [5]: 14.1 g/dL
Ht [5]: 41.3%
Lym [5]: 73%
MCH [5]: 21.6 pg
MCHC [5]: 34.1%
MCV [5]: 63.2 fL
Mono [5]: 4%
Neu [5]: 20.4%
PT [5]: 13.5 s
Plat [5]: 114.2 x10_4/uL
RBC [5]: 655 x10_4/ul
Ret [5]: 5.5%
WBC [5]: 96.3 x10_2/uL
KIDNEY_L [5]: 1 g
KIDNEY_R [5]: 1 g
KIDNEY_TOTAL [5]: 1.9 g
LIVER [5]: 11.1 g
A/G [5]: 1.5
ALP [5]: 1664.6 IU/L
ALT [5]: 124.8 IU/L
AST [5]: 283.8 IU/L
BUN [5]: 14.6 mg/dL
CRE [5]: 0.4 mg/dL
Ca [5]: 10.7 mg/dL
Cl [5]: 103.8 meq/L
DBIL [5]: 0.068 mg/dL
GLC [5]: 178.4 mg/dL
IP [5]: 7.3 mg/dL
K [5]: 3.8 meq/L
LDH [5]: 355.2 IU/L
Na [5]: 140.4 meq/L
PL [5]: 116.4 mg/dL
RALB [5]: 3.1 g/dL
TBIL [5]: 0.1 mg/dL
TC [5]: 49.8 mg/dL
TG [5]: 28.6 mg/dL
TP [5]: 5.3 g/dL
gamma-GTP [5]: 1.2 IU/L
TERMINAL_BW [6]: 248.2 g
TERMINAL_BW [7]: 287.9 g
TERMINAL_BW [8]: 367.6 g
APTT [6]: 20.7 s
Bas [6]: 0%
Eos [6]: 1%
Fbg [6]: 230.4 mg/dL
Hb [6]: 13.5 g/dL
Ht [6]: 39.2%
Lym [6]: 78.8%
MCH [6]: 21.4 pg
MCHC [6]: 34.4%
MCV [6]: 62.3 fL
Mono [6]: 3.6%
Neu [6]: 16.2%
PT [6]: 12.4 s
Plat [6]: 106.7 x10_4/uL
RBC [6]: 629.6 x10_4/ul
Ret [6]: 6%
WBC [6]: 130.8 x10_2/uL
APTT [7]: 23 s
Bas [7]: 0%
Eos [7]: 1%
Fbg [7]: 211.6 mg/dL
Hb [7]: 14.2 g/dL
Ht [7]: 42.3%
Lym [7]: 81.4%
MCH [7]: 19.1 pg
MCHC [7]: 33.7%
MCV [7]: 56.9 fL
Mono [7]: 3%
Neu [7]: 14.2%
PT [7]: 12.6 s
Plat [7]: 101.2 x10_4/uL
RBC [7]: 744.4 x10_4/ul
Ret [7]: 3.5%
WBC [7]: 113.3 x10_2/uL
APTT [8]: 25.3 s
Bas [8]: 0%
Eos [8]: 1%
Fbg [8]: 198.8 mg/dL
Hb [8]: 14.5 g/dL
Ht [8]: 43.1%
Lym [8]: 82.4%
MCH [8]: 17.9 pg
MCHC [8]: 33.6%
MCV [8]: 53.1 fL
Mono [8]: 3.4%
Neu [8]: 13.2%
PT [8]: 13.7 s
Plat [8]: 99.7 x10_4/uL
RBC [8]: 811.4 x10_4/ul
Ret [8]: 2.3%
WBC [8]: 151.6 x10_2/uL
KIDNEY_L [6]: 1.1 g
KIDNEY_R [6]: 1.1 g
KIDNEY_TOTAL [6]: 2.2 g
KIDNEY_L [7]: 1.1 g
KIDNEY_R [7]: 1.1 g
KIDNEY_TOTAL [7]: 2.2 g
KIDNEY_L [8]: 1.2 g
KIDNEY_R [8]: 1.2 g
KIDNEY_TOTAL [8]: 2.5 g
LIVER [6]: 13.7 g
LIVER [7]: 15.9 g
LIVER [8]: 20.8 g
A/G [6]: 1.6
ALP [6]: 1583 IU/L
ALT [6]: 72.2 IU/L
AST [6]: 139.2 IU/L
BUN [6]: 16 mg/dL
CRE [6]: 0.4 mg/dL
Ca [6]: 10.6 mg/dL
Cl [6]: 104.4 meq/L
DBIL [6]: 0.074 mg/dL
GLC [6]: 186.2 mg/dL
IP [6]: 8.5 mg/dL
K [6]: 4.1 meq/L
LDH [6]: 305.4 IU/L
Na [6]: 140.6 meq/L
PL [6]: 129.2 mg/dL
RALB [6]: 3.3 g/dL
TBIL [6]: 0.1 mg/dL
TC [6]: 56 mg/dL
TG [6]: 44.4 mg/dL
TP [6]: 5.4 g/dL
gamma-GTP [6]: 1.4 IU/L
A/G [7]: 1.6
ALP [7]: 1597.4 IU/L
ALT [7]: 149.4 IU/L
AST [7]: 238.6 IU/L
BUN [7]: 16.4 mg/dL
CRE [7]: 0.5 mg/dL
Ca [7]: 10.4 mg/dL
Cl [7]: 103.8 meq/L
DBIL [7]: 0.064 mg/dL
GLC [7]: 187.6 mg/dL
IP [7]: 7.5 mg/dL
K [7]: 3.9 meq/L
LDH [7]: 389.6 IU/L
Na [7]: 140.8 meq/L
PL [7]: 113 mg/dL
RALB [7]: 3.4 g/dL
TBIL [7]: 0.1 mg/dL
TC [7]: 51.6 mg/dL
TG [7]: 21 mg/dL
TP [7]: 5.7 g/dL
gamma-GTP [7]: 1.4 IU/L
A/G [8]: 1.3
ALP [8]: 1255 IU/L
ALT [8]: 300.8 IU/L
AST [8]: 396.2 IU/L
BUN [8]: 17.8 mg/dL
CRE [8]: 0.5 mg/dL
Ca [8]: 10.6 mg/dL
Cl [8]: 103.4 meq/L
DBIL [8]: 0.092 mg/dL
GLC [8]: 174.2 mg/dL
IP [8]: 6.4 mg/dL
K [8]: 3.9 meq/L
LDH [8]: 534.6 IU/L
Na [8]: 141.6 meq/L
PL [8]: 103.6 mg/dL
RALB [8]: 3.4 g/dL
TBIL [8]: 0.2 mg/dL
TC [8]: 39.4 mg/dL
TG [8]: 20.8 mg/dL
TP [8]: 5.9 g/dL
gamma-GTP [8]: 1.2 IU/L
